How the values were obtained:
Assay in all cases: Test E pre-/postemergence plant response
Type in all cases: in vivo
[1] = test system: common mallow (Malva sylvestris); conditions: scale 0 to 100
In short: (§1)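 Plants scored visually versus controls on a 0–100 scale (100 = complete control) 14 to 21 days after treatment in the greenhouse. Test chemicals in a surfactant-containing non-phytotoxic solvent were applied to soil preemergence or to 1- to 4-leaf plants, 2–18 cm tall.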

[2] = test system: common purslane (Portulaca oleracea); conditions: scale 0 to 100
In short: as §1

[3] = test system: guineagrass (Panicum maximum); conditions: scale 0 to 100
In short: as §1

[4] = test system: pitted morningglory (Ipomoea lacunosa); conditions: scale 0 to 100
In short: as §1

[5] = test system: goosegrass (Eleusine indica); conditions: scale 0 to 100
In short: as §1

[6] = test system: Italian ryegrass (Lolium multiflorum); conditions: scale 0 to 100
In short: as §1

[7] = test system: green foxtail (Setaria viridis); conditions: scale 0 to 100
In short: as §1

[8] = test system: dallisgrass (Paspalum dilatatum); conditions: scale 0 to 100
In short: as §1

[9] = test system: annual bluegrass (Poa annua); conditions: scale 0 to 100
In short: as §1

[10] = test system: black mustard (Brassica nigra); conditions: scale 0 to 100
In short: as §1

[11] = test system: quackgrass (Elytrigia repens); conditions: scale 0 to 100
In short: as §1

[12] = test system: common groundsel (Senecio vulgaris); conditions: Postemergence, scale 0 to 100
In short: as §1

[13] = test system: barnyardgrass (Echinochloa crus-galli); conditions: scale 0 to 100
In short: as §1

Compound: Cc1cc(-c2ccc(Cl)cc2)nn1-c1c(OS(=O)(=O)c2ccccc2)cnn(C)c1=O [Compound 35]
- Plant response rating, Mallow ([1]; 62 g ai/ha, Preemergence): 0
- Plant response rating, Mallow ([1]; Postemergence, 8 g ai/ha): 0
- Plant response rating, Mallow ([1]; Postemergence, 16 g ai/ha): 0
- Plant response rating, Mallow ([1]; Postemergence, 31 g ai/ha): 0
- Plant response rating, Mallow ([1]; Postemergence, 62 g ai/ha): 0
- Plant response rating, Purslane ([2]; 16 g ai/ha, Preemergence): 0
- Plant response rating, Purslane ([2]; 31 g ai/ha, Preemergence): 0
- Plant response rating, Purslane ([2]; 62 g ai/ha, Preemergence): 0
- Plant response rating, Purslane ([2]; Postemergence, 8 g ai/ha): 0
- Plant response rating, Purslane ([2]; Postemergence, 16 g ai/ha): 0
- Plant response rating, Purslane ([2]; Postemergence, 31 g ai/ha): 0
- Plant response rating, Purslane ([2]; Postemergence, 62 g ai/ha): 0
- Plant response rating, Guineagrass ([3]; 16 g ai/ha, Preemergence): 100
- Plant response rating, Guineagrass ([3]; 31 g ai/ha, Preemergence): 100
- Plant response rating, Guineagrass ([3]; 62 g ai/ha, Preemergence): 100
- Plant response rating, Guineagrass ([3]; Postemergence, 8 g ai/ha): 75
- Plant response rating, Guineagrass ([3]; Postemergence, 16 g ai/ha): 75
- Plant response rating, Guineagrass ([3]; Postemergence, 31 g ai/ha): 80
- Plant response rating, Guineagrass ([3]; Postemergence, 62 g ai/ha): 95
- Plant response rating, Morningglory ([4]; 16 g ai/ha, Preemergence): 0
- Plant response rating, Morningglory ([4]; 31 g ai/ha, Preemergence): 0
- Plant response rating, Morningglory ([4]; 62 g ai/ha, Preemergence): 0
- Plant response rating, Morningglory ([4]; Postemergence, 8 g ai/ha): 0
- Plant response rating, Morningglory ([4]; Postemergence, 16 g ai/ha): 0
- Plant response rating, Morningglory ([4]; Postemergence, 31 g ai/ha): 0
- Plant response rating, Morningglory ([4]; Postemergence, 62 g ai/ha): 0
- Plant response rating, Goosegrass ([5]; 8 g ai/ha, Preemergence): 20
- Plant response rating, Goosegrass ([5]; 16 g ai/ha, Preemergence): 75
- Plant response rating, Goosegrass ([5]; 31 g ai/ha, Preemergence): 100
- Plant response rating, Goosegrass ([5]; 62 g ai/ha, Preemergence): 100
- Plant response rating, Goosegrass ([5]; Postemergence, 8 g ai/ha): 30
- Plant response rating, Goosegrass ([5]; Postemergence, 16 g ai/ha): 30
- Plant response rating, Goosegrass ([5]; Postemergence, 31 g ai/ha): 40
- Plant response rating, Goosegrass ([5]; Postemergence, 62 g ai/ha): 75
- Plant response rating, Ryegrass, Italian ([6]; 16 g ai/ha, Preemergence): 98
- Plant response rating, Ryegrass, Italian ([6]; 31 g ai/ha, Preemergence): 100
- Plant response rating, Ryegrass, Italian ([6]; 62 g ai/ha, Preemergence): 100
- Plant response rating, Ryegrass, Italian ([6]; Postemergence, 8 g ai/ha): 20
- Plant response rating, Ryegrass, Italian ([6]; Postemergence, 16 g ai/ha): 20
- Plant response rating, Ryegrass, Italian ([6]; Postemergence, 31 g ai/ha): 60
- Plant response rating, Ryegrass, Italian ([6]; Postemergence, 62 g ai/ha): 95
- Plant response rating, Foxtail, Green ([7]; 8 g ai/ha, Preemergence): 15
- Plant response rating, Foxtail, Green ([7]; 16 g ai/ha, Preemergence): 35
- Plant response rating, Foxtail, Green ([7]; 31 g ai/ha, Preemergence): 90
- Plant response rating, Foxtail, Green ([7]; 62 g ai/ha, Preemergence): 98
- Plant response rating, Foxtail, Green ([7]; Postemergence, 8 g ai/ha): 40
- Plant response rating, Foxtail, Green ([7]; Postemergence, 16 g ai/ha): 60
- Plant response rating, Foxtail, Green ([7]; Postemergence, 31 g ai/ha): 65
- Plant response rating, Foxtail, Green ([7]; Postemergence, 62 g ai/ha): 75
- Plant response rating, Dallisgrass ([8]; 8 g ai/ha, Preemergence): 0
- Plant response rating, Dallisgrass ([8]; 16 g ai/ha, Preemergence): 40
- Plant response rating, Dallisgrass ([8]; 31 g ai/ha, Preemergence): 90
- Plant response rating, Dallisgrass ([8]; 62 g ai/ha, Preemergence): 90
- Plant response rating, Dallisgrass ([8]; Postemergence, 8 g ai/ha): 30
- Plant response rating, Dallisgrass ([8]; Postemergence, 16 g ai/ha): 30
- Plant response rating, Dallisgrass ([8]; Postemergence, 31 g ai/ha): 50
- Plant response rating, Dallisgrass ([8]; Postemergence, 62 g ai/ha): 60
- Plant response rating, Bluegrass ([9]; 8 g ai/ha, Preemergence): 0
- Plant response rating, Bluegrass ([9]; 16 g ai/ha, Preemergence): 0
- Plant response rating, Bluegrass ([9]; 31 g ai/ha, Preemergence): 0
- Plant response rating, Bluegrass ([9]; 62 g ai/ha, Preemergence): 0
- Plant response rating, Bluegrass ([9]; Postemergence, 8 g ai/ha): 0
- Plant response rating, Bluegrass ([9]; Postemergence, 16 g ai/ha): 0
- Plant response rating, Bluegrass ([9]; Postemergence, 31 g ai/ha): 0
- Plant response rating, Bluegrass ([9]; Postemergence, 62 g ai/ha): 0
- Plant response rating, Mustard, Black ([10]; 8 g ai/ha, Preemergence): 0
- Plant response rating, Mustard, Black ([10]; 16 g ai/ha, Preemergence): 0
- Plant response rating, Mustard, Black ([10]; 31 g ai/ha, Preemergence): 0
- Plant response rating, Mustard, Black ([10]; 62 g ai/ha, Preemergence): 0
- Plant response rating, Mustard, Black ([10]; Postemergence, 8 g ai/ha): 0
- Plant response rating, Mustard, Black ([10]; Postemergence, 16 g ai/ha): 0
- Plant response rating, Mustard, Black ([10]; Postemergence, 31 g ai/ha): 0
- Plant response rating, Mustard, Black ([10]; Postemergence, 62 g ai/ha): 0
- Plant response rating, Quackgrass ([11]; 16 g ai/ha, Preemergence): 20
- Plant response rating, Quackgrass ([11]; 31 g ai/ha, Preemergence): 40
- Plant response rating, Quackgrass ([11]; 62 g ai/ha, Preemergence): 50
- Plant response rating, Quackgrass ([11]; Postemergence, 8 g ai/ha): 0
- Plant response rating, Quackgrass ([11]; Postemergence, 16 g ai/ha): 10
- Plant response rating, Quackgrass ([11]; Postemergence, 31 g ai/ha): 30
- Plant response rating, Quackgrass ([11]; Postemergence, 62 g ai/ha): 40
- Plant response rating, Groundsel ([12]; 8 g ai/ha): 0
- Plant response rating, Groundsel ([12]; 16 g ai/ha): 0
- Plant response rating, Barnyardgrass ([13]; 8 g ai/ha, Preemergence): 40
- Plant response rating, Barnyardgrass ([13]; 16 g ai/ha, Preemergence): 80
- Plant response rating, Barnyardgrass ([13]; 31 g ai/ha, Preemergence): 95
- Plant response rating, Barnyardgrass ([13]; 62 g ai/ha, Preemergence): 100
- Plant response rating, Barnyardgrass ([13]; Postemergence, 8 g ai/ha): 60
- Plant response rating, Barnyardgrass ([13]; Postemergence, 16 g ai/ha): 75
- Plant response rating, Barnyardgrass ([13]; Postemergence, 31 g ai/ha): 100
- Plant response rating, Barnyardgrass ([13]; Postemergence, 62 g ai/ha): 100

Source: patent publication US20100267561A1, “HERBICIDAL PYRIDAZINONE DERIVATIVES” (priority 2007, published 2010)
